The record followed here is patent US9206130B2, “Quinoline derivatives as AXL kinase inhibitors” (Max-Planck-Gesellschaft zur Förderung der Wissenschaften …, priority 2008, dated 2015).

Counter-ions that a name gives are not always drawn. Where only a bound is given, the exact number is not on record here.

In one data set the target is T1, wild type AXL (wtAXL) receptor tyrosine kinase (Homo sapiens, UniProt P30530).
T1 construct: WtAXL cDNA was cloned into vector pLXSN(ESK) and transfected into Phoenix E packaging cells; expressed in transfected cells; host or cells: NIH3T3 N7 mouse fibroblasts, retrovirally infected (clone 22)
T1 sequence (P30530 26-894): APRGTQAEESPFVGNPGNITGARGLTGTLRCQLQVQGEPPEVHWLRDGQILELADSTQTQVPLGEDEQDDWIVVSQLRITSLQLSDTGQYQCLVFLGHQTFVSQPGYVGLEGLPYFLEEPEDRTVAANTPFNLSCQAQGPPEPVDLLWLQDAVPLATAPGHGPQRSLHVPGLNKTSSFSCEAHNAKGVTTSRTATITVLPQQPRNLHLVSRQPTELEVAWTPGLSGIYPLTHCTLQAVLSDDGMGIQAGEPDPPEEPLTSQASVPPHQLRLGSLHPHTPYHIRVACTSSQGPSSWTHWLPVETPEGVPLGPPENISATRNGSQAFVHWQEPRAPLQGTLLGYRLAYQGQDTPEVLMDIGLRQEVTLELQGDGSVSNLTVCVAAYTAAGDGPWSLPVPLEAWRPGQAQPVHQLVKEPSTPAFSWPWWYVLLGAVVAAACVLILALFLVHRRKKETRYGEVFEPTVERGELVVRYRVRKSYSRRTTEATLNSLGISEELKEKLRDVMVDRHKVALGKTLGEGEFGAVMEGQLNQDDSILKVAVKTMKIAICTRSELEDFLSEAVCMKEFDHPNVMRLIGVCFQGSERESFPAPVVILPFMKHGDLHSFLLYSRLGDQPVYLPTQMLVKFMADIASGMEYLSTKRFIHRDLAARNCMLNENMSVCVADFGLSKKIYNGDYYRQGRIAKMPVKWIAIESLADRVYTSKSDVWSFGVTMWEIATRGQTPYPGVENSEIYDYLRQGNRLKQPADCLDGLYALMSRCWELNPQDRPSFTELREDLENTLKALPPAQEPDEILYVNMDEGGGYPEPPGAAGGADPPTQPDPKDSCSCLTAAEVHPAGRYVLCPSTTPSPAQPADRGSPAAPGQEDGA
The data set is described as follows: NIH-3T3-AXL cellular tyrosine kinase assay (inhibition of AXL phosphorylation). Particulars: AXL phosphorylation in NIH-3T3-AXL (clone 22) cells, serum-depleted, 2 h with compound, immunoprecipitation / anti-phosphotyrosine blot. It is filed as cell-based. The protocol:
3) Inhibitory Activity of Compounds on Axl Phosphorylation in NIH-3T3-AXL Cellular Tyrosine Kinase Assay
The viral supernatant was collected and used to infect target cells NIH3T3 N7. Monoclonal NIH3T3-AXL cell lines stably expressing wtAXL were generated by selecting retrovirally infected cells in medium containing puromycin (2 μg/ml) and subsequent clonal separation.
NIH-3T3-AXL Cellular Kinase Assay
Serial dilutions of compounds were added, and the cells were further incubated or 2 h. […] The clarified cell lysate (10 min at 13000 rpm at 4° C.) were used for immunoprecipitation. Equal amounts of protein were mixed with 2 μg anti-AXL polyclonal antibody (homemade) and 20 μl Protein A sepharose beads, and rotated for 6 hr at 4° C. After immunoprecipitation, the beads were washed three times with 1×HNTG (50 mM HEPES (pH 7.5), 150 mM NaCl, 10% Glycerol, 0.2% Triton X-100). The final pellet was suspended in 20 μl 2× Laemmli buffer, and boiled for 5 min at 100° C. […] The membrane was then incubated with anti-phosphotyrosine antibody (4G10) overnight at 4° C. followed by washing with 1×TBST buffer three times. After incubating membrane with HRP-conjugated anti-mouse secondary antibody for 1 hour at room temperature followed by washing with 1×TBST buffer three times, the proteins were visualized by ECL.
As for `COc1cc2c(Oc3ccc(NS(=O)(=O)c4cccc5ccccc45)cc3F)ccnc2cc1OCCCN` [Example D02, Naphthalene-1-sulfonic acid {4-[7-(3-amino-propoxy)-6-methoxy-quinolin-4-yloxy]-3-fluoro-phenyl}-amide hydrochloride], the IC50 came to 695 nM.

In the case of `COc1cc2nccc(Oc3ccc(NS(=O)(=O)c4ccc(Cl)cc4F)cc3OC)c2cc1OC` [Example A141, 4-Chloro-N-[4-(6,7-dimethoxy-quinolin-4-yloxy)-3-methoxy-phenyl]-2-fluoro-benzenesulfonamide], the IC50 is over 10000 nM.

Tested on in a further data set: not given
Assay: not given
Conditions: not given
Take `COc1cc(S(=O)(=O)Nc2ccc(Oc3ccnc4cc(OCCCN5CCCC(C)C5)c(OC)cc34)c(F)c2)ccc1F` (centres unmarked) [Example D38, 4-Fluoro-N-(3-fluoro-4-{6-methoxy-7-[3-(3-methyl-piperidin-1-yl)-propoxy]-quinolin-4-yloxy}-phenyl)-3-methoxy-benzenesulfonamide]: the melting point is 98 to 101 °C.

`COc1cc2nccc(Oc3ccc(NS(=O)(=O)c4ccccc4C(F)(F)F)cc3)c2cc1OC` showed a melting point of 224 to 227 °C.

`COc1cc2nccc(Oc3ccc(NS(=O)(=O)c4cc(F)ccc4F)c(F)c3)c2cc1OC` displayed a melting point of 232 to 234 °C.

Take `COc1cc2c(Oc3ccc(NS(=O)(=O)c4cc(F)ccc4F)cc3F)ccnc2cc1OCCCN1CCCC(C)C1` (centres unmarked) [Example D36, 2,5-Difluoro-N-(3-fluoro-4-{6-methoxy-7-[3-(3-methyl-piperidin-1-yl)-propoxy]-quinolin-4-yloxy}-phenyl)-benzenesulfonamide]: the melting point fell in the range of 103 to 107 °C.

In turn, `COc1cc(S(=O)(=O)Nc2ccc(Oc3ccnc4cc(OCCCN5CCOCC5)c(OC)cc34)c(F)c2)ccc1F` [Example D44, 4-Fluoro-N-{3-fluoro-4-[6-methoxy-7-(3-morpholin-4-yl-propoxy)-quinolin-4-yloxy]-phenyl}-3-methoxy-benzenesulfonamide] showed a melting point of 90 to 93 °C.

In the case of `COc1cc2nccc(Oc3ccc(NS(=O)(=O)c4cc(Cl)ccc4Cl)c(F)c3)c2cc1OC`, the melting point lay in the range of 228 to 230 °C.

`COc1cc2nccc(Oc3ccc(NS(=O)(=O)c4ccccc4OC(F)(F)F)c(F)c3)c2cc1OC` returned a melting point of 204 to 206 °C.

For `COc1cc2nccc(Oc3ccc(NS(=O)(=O)c4ccc(Cl)c(Cl)c4)c(F)c3)c2cc1OC` [Example A49, 3,4-Dichloro-N-[4-(6,7-dimethoxy-quinolin-4-yloxy)-2-fluoro-phenyl]-benzenesulfonamide], the melting point fell in the range of 225 to 227 °C.

`COc1cc2nccc(Oc3ccc(NS(=O)(=O)c4cc(Cl)c(O)c(Cl)c4)c(C)c3)c2cc1OC` [Example A105, 3,5-Dichloro-N-[4-(6,7-dimethoxy-quinolin-4-yloxy)-2-methyl-phenyl]-4-hydroxy-benzenesulfonamide]: the melting point was 255 to 259 °C.

`COc1cc2c(Oc3ccc(NS(=O)(=O)c4cc(F)ccc4F)cc3F)ccnc2cc1OCCN1CCOCC1` displayed a melting point of 169 to 173 °C.

Consider `COc1cc2c(Oc3ccc(NS(=O)(=O)c4ccccc4OC(F)(F)F)cc3F)ccnc2cc1OCCCN1CCOCC1` [Example D40, N-{3-Fluoro-4-[6-methoxy-7-(3-morpholin-4-yl-propoxy)-quinolin-4-yloxy]-phenyl}-2-trifluoromethoxy-benzenesulfonamide], for which the melting point is 183 to 184 °C.

On to `COc1cc2c(Oc3ccc(NS(=O)(=O)c4cccc(-c5ccccc5)c4)cc3F)ccnc2cc1OCCCN` (as salt: hydrochloride) [Example D03, Biphenyl-3-sulfonic acid {4-[7-(3-amino-propoxy)-6-methoxy-quinolin-4-yloxy]-3-fluoro-phenyl}-amide hydrochloride], for which the melting point fell in the range of 198 to 202 °C.

Molecule `COc1cc2nccc(Oc3ccc(NS(=O)(=O)c4ccc(F)cc4F)c(F)c3)c2cc1OC` yielded a melting point of 212 to 214 °C.

`COc1cc2nccc(Oc3ccc(NS(=O)(=O)c4cccc5cccnc45)c(F)c3)c2cc1OC` [Example A8, Quinoline-8-sulfonic acid [4-(6,7-dimethoxy-quinolin-4-yloxy)-2-fluoro-phenyl]-amide] registered a melting point of 255 to 257 °C.

In the case of `COc1cc2c(Oc3ccc(NS(=O)(=O)c4ccccc4OC(F)(F)F)cc3F)ccnc2cc1OCCCN` (as salt: hydrochloride) [Example D15, N-{4-[7-(3-Amino-propoxy)-6-methoxy-quinolin-4-yloxy]-3-fluoro-phenyl}-2-trifluoromethoxy-benzenesulfonamide hydrochloride], the melting point was 95 to 97 °C.

`COc1cc2c(Oc3ccc(NS(=O)(=O)c4ccccc4C(F)(F)F)cc3F)ccnc2cc1OCCCN1CCCC(C)C1` (centres unmarked) [Example D35, N-(3-Fluoro-4-{6-methoxy-7-[3-(3-methyl-piperidin-1-yl)-propoxy]-quinolin-4-yloxy}phenyl)-2-trifluoromethyl-benzenesulfonamide] gave a melting point of 118 to 121 °C.

Regarding `COc1cc2c(Oc3ccc(NS(=O)(=O)c4cccc(-c5ccccc5)c4)cc3F)ccnc2cc1OCCCN1CCCC(C)C1` (centres unmarked) [Example D37, Biphenyl-3-sulfonic acid (3-fluoro-4-{6-methoxy-7-[3-(3-methyl-piperidin-1-yl)-propoxy]-quinolin-4-yloxy}-phenyl)-amide], the melting point lay in the range of 190 to 192 °C.

Consider `COc1cc2c(Oc3ccc(NS(=O)(=O)c4ccccc4C(F)(F)F)cc3F)ccnc2cc1OCCCN` (as salt: hydrochloride), for which the melting point is 197 to 199 °C.

In turn, `COc1cc2c(Oc3ccc(NS(=O)(=O)c4ccccc4F)cc3F)ccnc2cc1OCCCN1CCOCC1` [Example D45, 2-Fluoro-N-{3-fluoro-4-[6-methoxy-7-(3-morpholin-4-yl-propoxy)-quinolin-4-yloxy]-phenyl}-benzenesulfonamide] registered a melting point of 179 to 181 °C.

The molecule `COc1cc2c(Oc3ccc(NS(=O)(=O)c4ccccc4Br)cc3F)ccnc2cc1OCCCN1CCOCC1` [Example D49, 2-Bromo-N-{3-fluoro-4-[6-methoxy-7-(3-morpholin-4-yl-propoxy)-quinolin-4-yloxy]-phenyl}-benzenesulfonamide] gave a melting point of 185 to 188 °C.

In turn, `COc1cc2nccc(Oc3ccc(NS(=O)(=O)c4ccccc4C(F)(F)F)c(F)c3)c2cc1OC` gave a melting point of 237 to 239 °C.

On to `COc1cc2nccc(Oc3ccc(NS(=O)(=O)c4cccc5ccccc45)cc3)c2cc1OC` [Example A104, Naphthalene-1-sulfonic acid [4-(6,7-dimethoxy-quinolin-4-yloxy)-phenyl]-amide], for which the melting point was in the range of 250 to 253 °C.

Molecule `COc1cc2nccc(Oc3ccc(NS(=O)(=O)c4c(Cl)cccc4Cl)c(F)c3)c2cc1OC` showed a melting point of 217 to 218 °C.

Turning to `COc1cc2nccc(Oc3ccc(NS(=O)(=O)c4cccc(OC(F)(F)F)c4)c(F)c3)c2cc1OC` [Example A35, N-[4-(6,7-Dimethoxy-quinolin-4-yloxy)-2-fluoro-phenyl]-3-trifluoromethoxy-benzenesulfonamide], the melting point was in the range of 221 to 223 °C.

Molecule `COc1cc2c(Oc3ccc(NS(=O)(=O)c4cc(F)ccc4F)cc3F)ccnc2cc1OCCCN1CCC(C)CC1` gave a melting point of 223 to 225 °C.

Molecule `COc1cc2c(Oc3ccc(NS(=O)(=O)c4c(Cl)cccc4Cl)cc3F)ccnc2cc1OCCCN1CCOCC1` [Example D47, 2,6-Dichloro-N-{3-fluoro-4-[6-methoxy-7-(3-morpholin-4-yl-propoxy)-quinolin-4-yloxy]-phenyl}-benzenesulfonamide] gave a melting point of 194 to 196 °C.

`COc1cc2nccc(Oc3ccc(NS(=O)(=O)c4cc(Br)cc(C(F)(F)F)c4)c(F)c3)c2cc1OC` [Example A47, 3-Bromo-N-[4-(6,7-dimethoxy-quinolin-4-yloxy)-2-fluoro-phenyl]-5-trifluoromethyl-benzenesulfonamide] came in with a melting point of 214 to 216 °C.

A word on the IC50: it is the concentration needed to halve the response being measured. The melting point is the temperature of the solid-liquid transition.
